Values of other authors, collected in patent publication US20130280327A1, “ZOLPIDEM-BASED ORODISPERSIBLE PHARMACEUTICAL TABLET” (Sanofi, priority 2010, published 2013).

Conditions: hypnotic action, oral, conventional formulations

For `Cc1ccc(-c2nc3ccc(C)cn3c2CC(=O)N(C)C)cc1` [zolpidem], the duration of action is given as “up to 6 hours”.
